For this test, the target named is C5aR (Homo sapiens (Human), UniProt P21730). As to the kind of experiment: Chemotaxis assay using U937 cells (C5aR mediated migration). Format: cell-based. The settings on record: read-out: Mig IC50. How it is done:
U937 cells are a monocytic cell line which express C5aR, and are available from ATCC (VA). These cells were cultured as a suspension in RPMI-1640 medium supplemented with 2 mM L-glutamine, 1.5 g/L sodium bicarbonate, 4.5 g/L glucose, 10 mM HEPES, 1 mM sodium pyruvate, and 10% FBS. Cells were grown under 5% CO2/95% air, 100% humidity at 37° C. and subcultured twice weekly at 1:6 (cells were cultured at a density range of 1×10^5 to 2×10^6 cells/mL) and harvested at 1×10^6 cells/mL. Prior to assay, cells are treated overnight with 0.5 mM of cyclic AMP (Sigma, OH) and washed once prior to use. cAMP treated U937 cells can be used in C5aR ligand binding and functional assays.
Optionally, compounds may be further assayed for their ability to inhibit chemotaxis in cells. Chemotaxis assays are performed using 5 μm pore polycarbonate, polyvinylpyrrolidone-coated filters in 96-well chemotaxis chambers (Neuroprobe; Gaithersburg, Md.) using chemotaxis buffer (Hank's balanced salt solution (HBSS) and 1% FBS). C5aR ligands (i.e., C5a, R&D Systems; Minneapolis, Minn.) are use to evaluate compound mediated inhibition of C5aR mediated migration. Other chemokines (i.e., SDF-1α; R&D Systems; Minneapolis, Minn.) are used as specificity controls. The lower chamber is loaded with 29 μl of chemokine (i.e., 0.03 nM C5a) and varying amounts of compound; the top chamber contains 100,000 U937 or neutrophil cells in 20 μl. The chambers are incubated 1.5 hours at 37° C., and the number of cells in the lower chamber quantified either by direct cell counts in five high powered fields per well or by the CyQuant assay (Molecular Probes), a fluorescent dye method that measures nucleic acid content and microscopic observation.
The compounds in Table 1, below, were prepared using the methods described above. Characterization data is provided for each compound listed. Activity is provided as follows for the chemotaxis assay using U937 cells as described herein (Example 12): +, 500 nM<IC50; ++, 50 nM<IC50≤500 nM; +++, 5 nM<IC50≤50 nM; and ++++, IC50≤5 nM.

Chain of C5aR (P21730 whole entry): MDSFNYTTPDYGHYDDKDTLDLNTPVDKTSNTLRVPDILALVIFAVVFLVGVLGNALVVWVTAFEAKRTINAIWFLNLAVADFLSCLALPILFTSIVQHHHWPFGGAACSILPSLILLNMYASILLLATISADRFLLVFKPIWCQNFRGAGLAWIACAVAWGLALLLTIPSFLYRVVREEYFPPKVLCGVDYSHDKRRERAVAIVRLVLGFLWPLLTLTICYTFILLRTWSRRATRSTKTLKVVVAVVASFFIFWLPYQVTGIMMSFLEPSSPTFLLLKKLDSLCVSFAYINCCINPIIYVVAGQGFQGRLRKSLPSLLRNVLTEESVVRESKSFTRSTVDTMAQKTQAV

Turning to `CCc1cccc(CC)c1-n1nc2c(c1-c1cc(F)c(NC(N)=O)cc1F)CN(C(C)(C)CC)CC2` [Example 1.212], the half-maximal inhibitory concentration (IC50) is no more than 5 nM. With `Cc1cccc(OCC(C)C)c1-n1nc2c(c1-c1ccc(NC(N)=O)c(F)c1)CN(CC(C)(C)C)CC2` [Example 1.274] the figure was no more than 5 nM; with `Cc1cccc(OCC(C)C)c1-n1nc2c(c1-c1ccc(NC(N)=O)cc1)CN(Cc1c(F)cccc1Cl)CC2` [Example 1.350], 5 to 50 nM. With `CCc1cccc(CC)c1-n1nc2c(c1-c1cc(F)c(NC(N)=O)cc1F)CN(C(C)(C)c1ccccc1)CC2` [Example 1.200], the IC50 was no more than 5 nM.

For `Cc1cccc(OCC(C)C)c1-n1nc2c(c1-c1ccc(NC(N)=O)cc1)CN(C(=O)C1CCC1)CC2` [Example 1.426], the IC50 lay within 50 to 500 nM. In the case of `CCc1cccc(CC)c1-n1nc2c(c1-c1cc(F)c(NC(N)=O)cc1F)CN(Cc1cc(Cl)ccc1C(F)(F)F)CC2` [Example 1.069], the IC50 is no more than 5 nM. With `Cc1cccc(C)c1-n1nc2c(c1-c1cc(F)c(NC(N)=O)cc1F)CN(c1ncc(Cl)cc1Cl)CC2` [Example 1.180] the figure was no more than 5 nM.

Take `Cc1cccc(C)c1-n1nc2c(c1-c1cc(F)c(N)cc1F)CN(c1ncc(Cl)cc1Cl)CC2` [Example 1.120]: the IC50 is greater than 500 nM.

With `CCc1cccc(CC)c1-n1nc2c(c1-c1cc(F)c(NC(N)=O)cc1C)CN(C(C)c1ccccc1C(F)(F)F)CC2` (stereo not shown) [Example 1.197], the IC50 is no more than 5 nM. With `COc1cc(NC(N)=O)c(F)cc1-c1c2c(nn1-c1c(C)cccc1OCC(C)C)CCN(c1ncc(C(C)C)cc1F)C2` [Example 1.130] the figure was no more than 5 nM; with `Cc1cccc(OC(C)C)c1-n1nc2c(c1-c1ccc(N)cc1)CN(c1ccccc1C(C)C)CC2` [Example 1.465], 5 to 50 nM. Turning to `Cc1ccc(C(C)(C)C)cc1N1CCc2nn(-c3c(C)cccc3C)c(-c3ccc(OC(C)C)cc3)c2C1` [Example 1.446], the 50% inhibitory concentration (IC50) was greater than 500 nM. Turning to `Cc1cccc(OCC(C)C)c1-n1nc2c(c1-c1ccc(NC(N)=O)cc1)CN(Cc1ccc(C(F)(F)F)cc1C(F)(F)F)CC2` [Example 1.357], the 50% inhibitory concentration (IC50) is no more than 5 nM.

For the compound `CCc1cccc(CC)c1-n1nc2c(c1-c1cc(F)c(NC(N)=O)cc1F)CN(C(=O)C1CCOCC1)C(C)(C)C2` [Example 1.029], the half-maximal inhibitory concentration (IC50) was in the range of 5 to 50 nM. With `Cc1cc(C)c(-n2nc3c(c2-c2ccc(NC(N)=O)cc2)CN(c2ncc(C(F)(F)F)cc2F)CC3)c(C)c1` [Example 1.287] the figure was 5 to 50 nM; with `Cc1cccc(OCC(C)C)c1-n1nc2c(c1-c1ccc(NC(N)=O)cc1)CN(c1ccc(C(C)(C)C)cn1)CC2` [Example 1.370], 5 to 50 nM; with `Cc1cccc(C)c1-n1nc2c(c1-c1cc(F)c(NC(N)=O)cc1F)CN(c1ncc(C(F)(F)F)cc1F)CC2` [Example 1.174], no more than 5 nM. Consider `Cc1cccc(OCC(C)C)c1-n1nc2c(c1-c1ccc(NC(N)=O)c(F)c1)CN(S(=O)(=O)c1ccccc1C(F)(F)F)CC2` [Example 1.229], for which the half-inhibitory concentration (IC50) was in the range of 5 to 50 nM. Turning to `CCc1cccc(CC)c1-n1nc2c(c1-c1cc(F)c(NC(N)=O)cc1F)CN(C(C)(C)c1cccc(OC)c1)CC2` [Example 1.156], the IC50 was no more than 5 nM. Consider `Cc1cccc(OCC(C)C)c1-n1nc2c(c1-c1cc(F)c(NC(N)=O)c(F)c1)CN(c1ncc(C(F)(F)F)cc1F)CC2` [Example 1.263], for which the IC50 was in the range of 50 to 500 nM. With `CCc1cccc(CC)c1-n1nc2c(c1-c1cc(F)c(NC(N)=O)cc1F)CN(Cc1ccc(C(F)(F)F)cc1F)C(C)(C)C2` [Example 1.050] the figure was no more than 5 nM; with `Cc1cc(NC(N)=O)c(F)cc1-c1c2c(nn1-c1c(C)cccc1C)CCN(c1ccc(Cl)cc1Cl)C2` [Example 1.118], no more than 5 nM; with `CCc1cccc(CC)c1-n1nc2c(c1-c1ccc(NC(N)=O)cc1)CN(C(C)c1ccccc1C(F)(F)F)CC2` (stereo not shown) [Example 1.295], 5 to 50 nM. With `CCN1CCc2nn(-c3c(C)cccc3OCC(C)C)c(-c3ccc(NC(N)=O)c(F)c3)c2C1` [Example 1.265] the figure was 50 to 500 nM. With `COc1cccc(C)c1-n1nc2c(c1-c1ccc(N)cc1)CN(c1ccccc1C(C)C)CC2` [Example 1.486] the figure was 50 to 500 nM; with `NC(=O)Nc1cc(F)c(-c2c3c(nn2-c2c(F)cccc2F)CCN(c2ncc(Cl)cc2Cl)C3)cc1F` [Example 1.183], 5 to 50 nM. `Cc1cccc(OCC(C)C)c1-n1nc2c(c1-c1ccc(NC(N)=O)c(F)c1)CN(CC1CCCC1)CC2` [Example 1.272]: the IC50 is no more than 5 nM. With `Cc1cccc(OCC(C)C)c1-n1nc2c(c1-c1ccc(NC(N)=O)cc1)CN(Cc1c(F)cccc1C(F)(F)F)CC2` [Example 1.351] the figure was no more than 5 nM.

For `Cc1cccc(OCC(C)C)c1-n1nc2c(c1-c1ccc(NC(N)=O)cc1)CN(Cc1ccc(F)cc1C(F)(F)F)CC2` [Example 1.358], the half-maximal inhibitory concentration (IC50) was no more than 5 nM. `Cc1ccc(C(C)(C)C)cc1N1CCc2nn(-c3c(C)cccc3CCC(C)C)c(-c3ccc(NC(N)=O)cc3)c2C1` [Example 1.387]: the half-maximal inhibitory concentration (IC50) was in the range of 5 to 50 nM. Regarding `Cc1cccc(OCC(C)C)c1-n1nc2c(c1-c1ccc(NC(N)=O)cc1)CN(Cc1c(Cl)cccc1Cl)CC2` [Example 1.367], the IC50 lay within 5 to 50 nM. For the compound `COc1cccc(F)c1CN1CCc2nn(-c3c(C)cccc3OCC(C)C)c(-c3ccc(NC(N)=O)cc3)c2C1` [Example 1.354], the IC50 was 5 to 50 nM. With `CCc1cccc(CC)c1-n1nc2c(c1-c1cc(F)c(NC(N)=O)cc1F)CN(Cc1cccc(C(F)(F)F)c1)C(C)(C)C2` [Example 1.014] the figure was no more than 5 nM; with `Cc1cnc(C(C)C)cc1N1CCc2nn(-c3c(C)cccc3OCC(C)C)c(-c3ccc(NC(N)=O)cc3)c2C1` [Example 1.348], 5 to 50 nM; with `Cc1cccc(OCC(C)C)c1-n1nc2c(c1-c1ccc(NC(N)=O)cc1)CN(c1ncc(C(F)(F)F)cn1)CC2` [Example 1.352], 5 to 50 nM. With `Cc1cccc(OCC(C)C)c1-n1nc2c(c1-c1cc(F)c(NC(N)=O)cc1F)CN(c1ncccc1F)CC2` [Example 1.178] the figure was no more than 5 nM; with `Cc1cc(N2CCc3nn(-c4c(C)cccc4OCC(C)C)c(-c4cc(F)c(NC(N)=O)cc4F)c3C2)ncc1Cl` [Example 1.177], no more than 5 nM.

Regarding `Cc1cnc(N2CCc3nn(-c4c(C)cccc4OCC(C)C)c(-c4ccc(NC(N)=O)cc4)c3C2)c(C(F)(F)F)c1` [Example 1.296], the concentration for half-maximal inhibition (IC50) is no more than 5 nM. With `Cc1cccc(OCC(C)C)c1-n1nc2c(c1-c1ccc(NC(N)=O)cc1Cl)CN(c1ncc(C(F)(F)F)cc1F)CC2` [Example 1.269] the figure was no more than 5 nM; with `CCc1cccc(CC)c1-n1nc2c(c1-c1cc(F)c(NC(N)=O)cc1F)CN(c1ncc(Cl)cc1Cl)[C@H](C)C2` [Example 1.018], no more than 5 nM.

Regarding `CCc1cccc(CC)c1-n1nc2c(c1-c1cc(F)c(NC(N)=O)cc1F)CN(Cc1cc(Cl)ccc1Cl)C(C)(C)C2` [Example 1.023], the IC50 was no more than 5 nM.

Turning to `Cc1cccc(C)c1-n1nc2c(c1-c1cc(F)c(NC(N)=O)cc1F)CN(c1ncc(Cl)cn1)CC2` [Example 1.155], the half-maximal inhibitory concentration (IC50) lay within 5 to 50 nM. With `CCc1cccc(CC)c1-n1nc2c(c1-c1cc(F)c(NC(N)=O)cc1F)CN(C(c1ccccc1)C(C)(C)O)CC2` (stereo not shown) [Example 1.080] the figure was no more than 5 nM; with `Cc1cccc(C)c1-n1nc2c(c1-c1cc(F)c(NC(N)=O)cc1F)CN(c1ncc(Cl)cc1C#N)CC2` [Example 1.102], no more than 5 nM; with `CC(C)COc1cccnc1-n1nc2c(c1-c1cc(F)c(NC(N)=O)cc1F)CN(c1ncc(Cl)cc1Cl)CC2` [Example 1.171], 5 to 50 nM. With `Cc1cccc(OCC(C)C)c1-n1nc2c(c1-c1ccc(NC(N)=O)c(F)c1)CN(c1ccc(C(F)(F)F)cc1Cl)CC2` [Example 1.241] the figure was no more than 5 nM. With `Cc1cccc(OCC(C)C)c1-n1nc2c(c1-c1ccc(NC(N)=O)cc1)CN(CC1(C(F)(F)F)CC1)CC2` [Example 1.372] the figure was 5 to 50 nM. On to `Cc1ccc(C(C)(C)C)cc1N1CCc2nn(-c3c(C)cccc3C)c(-c3ccc(NC(N)=O)cc3)c2C1` [Example 1.442], for which the IC50 was in the range of 5 to 50 nM. With `Cc1cnc(N2CCc3nn(-c4c(C)cccc4OCC(C)C)c(-c4ccc(NC(N)=O)c(F)c4)c3C2)c(Cl)c1` [Example 1.213] the figure was no more than 5 nM; with `NC(=O)Nc1cc(F)c(-c2c3c(nn2-c2c(Cl)cccc2Cl)CCN(c2ncc(Cl)cc2Cl)C3)cc1F` [Example 1.187], 5 to 50 nM.

Consider `Cc1cccc(OCC(C)C)c1-n1nc2c(c1-c1cc(F)c(NC(N)=O)cc1F)CN(c1ncc(Cl)cc1F)CC2` [Example 1.173], for which the concentration for half-maximal inhibition (IC50) is no more than 5 nM. As for `CCc1cccc(CC)c1-n1nc2c(c1-c1cc(F)c(NC(N)=O)cc1F)CN(Cc1cnc(C)cc1C)CC2` [Example 1.026], the IC50 is 5 to 50 nM.

The values are drawn from US11478460B2, “Diaryl substituted 6,5-fused ring compounds as C5aR inhibitors” (CHEMOCENTRYX, INC., priority 2017, dated 2022).
